Source: patent US20220127297A1, “Novel Antibacterial 3"-Derivatives Of 4,6-Disubstituted 2,5-Dideoxystreptamine Aminoglycoside Antibiotics” (AGILeBiotics B.V., priority 2018, published 2022)
In brackets after ≈: the same amount, converted by molar mass. Read-outs that look alike come from different tables or passages of the source.

Key:
[1] = tested on: clinical isolates of methicillin-resistant Staphylococcus aureus (MRSA); assay: MIC determination at Fidelta, clinical isolates; format: cell-based
Source text: (§1) 3.4.2 MIC Determination at Fidelta (Croatia)
(§2) Tested reference compounds. Amikacin sulfate (Cat. No. 01693, Chem-Impex), Gentamicin sulfate (Cat. No. G4918, Sigma Aldrich), Ceftazidime Pentahydrate (Cat. No. 1098130, USP), Meropenem (Cat. No. 1392454, USP), Tobramycin (Cat. No. 1667508, USP).
(§3) Microbial strains. Klebsiella pneumoniae KP-1919 (abdomen), Klebsiella pneumoniae KP-1935 (urine), Klebsiella pneumoniae KP-1936 (abscess), Klebsiella pneumoniae KP-1937 (blood), Klebsiella pneumoniae KP-1942 (urine), Klebsiella pneumoniae KP-1944 (blood), Klebsiella pneumoniae KP-2027 (tracheal aspirate), Klebsiella pneumoniae KP-2029 (urine), Klebsiella pneumoniae KP-2030 (trachea), Klebsiella pneumoniae KP-2031 (skin), Klebsiella pneumoniae KP-2032 (urine), Klebsiella pneumoniae KP-2033 (urine), Klebsiella pneumoniae KP-2034 (urine), Klebsiella pneumoniae KP-2035 (urine), Klebsiella pneumoniae KP-2036 (urine), Klebsiella pneumoniae KP-2037 (urine), Klebsiella pneumoniae ATCC 43816, Pseudomonas aeruginosa PA-1948 (wound), Pseudomonas aeruginosa PA-1949 (urine), Pseudomonas aeruginosa PA-1950 (sputum), Pseudomonas aeruginosa PA-1952 (wound), Pseudomonas aeruginosa PA-1953 (urine), Pseudomonas aeruginosa PA-1954 (sputum), Pseudomonas aeruginosa PA-1967 (blood), Pseudomonas aeruginosa ATCC27853, Acinetobacter baumannii AB-1931 (urine), Acinetobacter baumannii AB-1932 (urine), Acinetobacter baumannii AB-2017 (bronchial aspirate), Acinetobacter baumannii AB-2018 (skin), Acinetobacter baumannii AB-2019 (bronchial aspirate), Acinetobacter baumannii AB-1964 (blood), Acinetobacter baumannii AB-2025 (skin), Acinetobacter baumannii AB-2026 (skin), Acinetobacter baumannii ATCC17978, methicillin-resistant Staphylococcus aureus MRSA-1995 (liquor), methicillin-resistant Staphylococcus aureus MRSA-1998 (wound), methicillin-resistant Staphylococcus aureus MRSA-1999 (skin), methicillin-resistant Staphylococcus aureus MRSA-2003 (wound), vancomycin-resistant Enterococcus faecium VRE-2005 (urine), vancomycin-resistant Enterococcus faecium VRE-2006 (urine), vancomycin-resistant Enterococcus faecium VRE-2007 (urine), vancomycin-resistant Enterococcus faecium VRE-2008 (urine), vancomycin-resistant Enterococcus faecium VRE-2009 (urine), vancomycin-resistant Enterococcus faecium VRE-2010 (urine), vancomycin-resistant Enterococcus faecium VRE-2011 (rectum), vancomycin-resistant Enterococcus faecium VRE-2012 (rectum), vancomycin-resistant Enterococcus faecium VRE-2013 (rectum).
(§4) Culture media and equipment. BBL™ Mueller Hinton Broth (REF 275730, Lot. 7009699, Becton Dickinson); Mueller Hinton Agar 2 (Ref. No. 97580-500G-F, Lot. No. BCBV4646, Sigma); Cellstar, 96-well plates, U-bottom (Cat. No. 650180, Lot. No. E14123EB, Greiner Bio-one); 96-well deep well plate, 1 mL (Cat. No. 278606, Nunc); Incubator (Binder); Laminar flow (Thermo Scientific); BioPhotometer (Eppendorf); DEN-1B (McFarland Densitometer, Biosan); McFarland standards (polymer microparticle suspension, Biosan).
(§5) Compound preparation. For testing, 5 mg/mL DMSO solutions of the test compounds and reference antibiotics were used. Out of these DMSO solutions, 43.5 μL was transferred to 1656.5 μL of MH media in a deep well plate. Out of these working solutions 100 μL was transferred to wells in the third column of 96-well plates. Plates are previously filled with 50 μL of MH media in all wells except for the wells in the third column. After compound and antibiotic addition, 50 μL was transferred from the third to the fourth column, then from the fourth to the fifth and so on. In this manner, the compounds and antibiotics were plated in 96-well plate in serial two-fold dilutions giving a final concentration range of 64-0.125 μg/mL.
(§6) Inoculum preparation. Designations used for clinical isolates were from Fidelta strain collection bank. Microorganisms used were all revived from skim milk storage at −70° C. by plating them on MH agar plates.

[2] = tested on: clinical isolates of Vancomycin-resistant Enterococcus faecium (VRE); assay: MIC determination at Fidelta, clinical isolates; format: cell-based
Source text: as §1, §2, §3, §4, §5, §6

[3] = tested on: clinical isolates of multidrug-resistant Klebsiella pneumoniae (and ATCC43816); assay: MIC determination at Fidelta, clinical isolates; format: cell-based; conditions: Klebsiella pneumoniae
Source text: as §1, §2, §3, §4, §5, §6

[4] = tested on: Klebsiella pneumoniae ATCC 43816; assay: Murine neutropenic thigh model of infection; format: in vivo, male CD-1 mice
Method: 4.1 Murine Neutropenic Thigh Model of Infection (Kiebsiella Pneumoniae ATCC 43816)
A comparator antibiotic (meropenem; Cat. No. 1392454, USP) was used during both studies.
During the first study ABX5006 and ABX5020 were tested at a dose of 64 mg/kg (group 5 for ABX5006, group 8 for ABX5020), 16 mg/kg (group 4 for ABX5006, group 7 for ABX5020) and of 4 mg/kg (group 3 for ABX5006, group 6 for ABX5020).
During a second study ABX5026 and ABX5039 were tested at a dose of 4 mg/kg (group 5 for ABX5026, group 8 for ABX5039), 1 mg/kg (group 4 for ABX5026, group 7 for ABX5039) and of 0.25 mg/kg (group 3 for ABX5026, group 6 for ABX5039).
Animals were dosed subcutaneously (10 mL/kg) twice with 8 h interval. […] A CFU count below limit of detection (LOD=1.0×10^2 CFU/mL) was substituted with the value 0 in order to perform statistical analysis.
Inoculum preparation for intramuscular infection. The strain was streaked out onto MH agar.

[5] = ATCC43816, KP-1919, Abdomen/VIM, ESBL
[6] = ATCC43816, KP-1935, Urine/ESBL, NDM
[7] = ATCC43816, KP-1936, Abscess/NDM
[8] = ATCC43816, KP-1937, Blood/VIM, ESBL
[9] = ATCC43816, KP-1942, Urine (catheter)/VIM
[10] = ATCC43816, KP-2027, Tracheal aspirate/ESBL, OXA-48, ColR
[11] = ATCC43816, KP-2029, Urine/ESBL, OXA-48
[12] = ATCC43816, KP-2030, Trachea/ESBL, OXA-48
[13] = ATCC43816, KP-2031, Skin/ESBL, OXA-48
[14] = ATCC43816, KP-2032, Urine/ESBL, OXA-48
[15] = ATCC43816, KP-2033, Urine/OXA-A8
[16] = ATCC43816, KP-2034, Urine/ESBL, OXA-48
[17] = ATCC43816, KP-2035, Urine/ESBL, OXA-48
[18] = ATCC43816, KP-2037, Urine/ESBL, OXA-48

| SMILES | MIC90 ([1]; MRSA-1995, Liquor) [µg/mL] | MIC90 ([1]; MRSA-1998, Wound) [µg/mL] | MIC90 ([1]; MRSA-1999, Skin) [µg/mL] | MIC90 ([1]; MRSA-2003, Wound) [µg/mL] | MIC90 ([2]; VRE-2005, Urine) [µg/mL] | MIC90 ([2]; VRE-2006, Urine) [µg/mL] | MIC90 ([2]; VRE-2007, Urine) [µg/mL] | MIC90 ([2]; VRE-2008, Urine) [µg/mL] | MIC90 ([2]; VRE-2009, Urine) [µg/mL] | MIC90 ([2]; VRE-2010, Urine) [µg/mL] | MIC90 ([2]; VRE-2011, Rectum) [µg/mL] | MIC90 ([2]; VRE-2012, Rectum) [µg/mL] | MIC90 ([2]; VRE-2013, Rectum) [µg/mL] | MIC90 [3, 5] [µg/mL] | MIC90 [3, 6] [µg/mL] | MIC90 [3, 7] [µg/mL] | MIC90 [3, 8] [µg/mL] | MIC90 [3, 9] [µg/mL] | MIC90 ([3]; ATCC43816, KP-1944, Blood/NDM) [µg/mL] | MIC90 [3, 10] [µg/mL] | further results |
| --- | --- | --- | --- | --- | --- | --- | --- | --- | --- | --- | --- | --- | --- | --- | --- | --- | --- | --- | --- | --- | --- |
| C[C@@H](O)[C@H]1C(=O)N2C(C(=O)O)=C(S[C@@H]3CN[C@H](C(=O)N(C)C)C3)[C@H](C)[C@H]12 [Meropenem, meropenem, reference compound] | 64 (≈ 167 µM) | 8 (≈ 20.9 µM) | 64 (≈ 167 µM) | 8 (≈ 20.9 µM) | > 64 | > 64 | > 64 | > 64 | > 64 | > 64 | > 64 | > 64 | > 64 | 4 (≈ 10.4 µM) | 32 (≈ 83.4 µM) | > 64 | 32 (≈ 83.4 µM) | 64 (≈ 167 µM) | > 64 | 4 (≈ 10.4 µM) | MIC90 ([3]; ATCC43816): < 0.125 µg/mL; MIC90 [3, 11]: 4 µg/mL (≈ 10.4 µM); MIC90 [3, 12]: 4 µg/mL (≈ 10.4 µM); MIC90 [3, 13]: 2 µg/mL (≈ 5.22 µM); MIC90 [3, 14]: 2 µg/mL (≈ 5.22 µM); MIC90 [3, 15]: 16 µg/mL (≈ 41.7 µM); MIC90 [3, 16]: 16 µg/mL (≈ 41.7 µM); MIC90 [3, 17]: 2 µg/mL (≈ 5.22 µM); MIC90 ([3]; ATCC43816, KP-2036, Urine/ESBL): 16 µg/mL (≈ 41.7 µM); MIC90 [3, 18]: 2 µg/mL (≈ 5.22 µM); Change from vehicle group ([4]; Log CFU/g thigh, dose 100 mg/kg SC BID): −4.56; Avg. Log CFU/g thigh ([4]; dose 100 mg/kg SC BID, 24 h post infection): 4.95 Log CFU/g; Change from vehicle group ([4]; dose 100 mg/kg, SC, BID, Avg. Log CFU/g thigh vs vehicle): 8.17; Avg. Log CFU/g ([4]; dose 100 mg/kg, SC, BID, thigh, 24 hours post infection): 1.61 Log CFU/g; survival rate ([4]; first study, vehicle group 50% mortality): 100% |
| CC(C)(O/N=C(\C(=O)N[C@@H]1C(=O)N2C(C(=O)[O-])=C(C[n+]3ccccc3)CS[C@H]12)c1csc(N)n1)C(=O)O [Ceftazidime, reference compound] | > 64 | > 64 | > 64 | > 64 | > 64 | > 64 | > 64 | > 64 | > 64 | > 64 | > 64 | > 64 | > 64 | 64 (≈ 117 µM) | > 64 | > 64 | > 64 | > 64 | > 64 | > 64 | MIC90 ([3]; ATCC43816, K. pneumoniae ATCC43816 strain, read-out: MIC 90): < 0.125 µg/mL; MIC90 [3, 11]: > 64 µg/mL; MIC90 [3, 12]: > 64 µg/mL; MIC90 [3, 13]: > 64 µg/mL; MIC90 [3, 14]: > 64 µg/mL; MIC90 [3, 15]: > 64 µg/mL; MIC90 [3, 16]: > 64 µg/mL; MIC90 [3, 17]: > 64 µg/mL; MIC90 ([3]; ATCC43816, KP-2036, Urine/ESBL): > 64 µg/mL; MIC90 [3, 18]: > 64 µg/mL |
